Experimental data as given in ChEMBL document CHEMBL1150861, “Triterpene saponins from Tupidanthus calyptratus” (J Nat Prod, 2001).
Calls of active or inactive are those of the source. The calls are words filed in the database; no cut-off is given here.

Legend:
[1] = tested on: J774; assay: Antiproliferative activity against mouse J774 cells […] after 72 hrs by MTT assay; assay type: functional, cell-based
[2] = tested on: WEHI-164; assay: Antiproliferative activity against mouse WEHI164 cells […] after 72 hrs by MTT assay; assay type: functional, cell-based
[3] = tested on: HEK293; assay: Antiproliferative activity against HEK293 cells […] after 72 hrs by MTT assay; assay type: cell-based; conditions: human, hek293, 72 h

C[C@@H]1[C@H]2C3=CC[C@@H]4[C@@]5(C)C[C@@H](O)[C@H](O[C@@H]6OC[C@H](O)[C@H](O[C@@H]7OC[C@@H](O)[C@H](O)[C@H]7O)[C@H]6O)[C@@](C)(CO)[C@@H]5CC[C@@]4(C)[C@]3(C)CC[C@@]2(C(=O)O[C@@H]2O[C@H](CO)[C@@H](O)[C@H](O)[C@H]2O)CC[C@]1(C)O
Activity [1]: inactive | Activity [2]: inactive | Activity [3]: Not Active

C[C@@H]1[C@H]2C3=CC[C@@H]4[C@@]5(C)C[C@@H](O)[C@H](O[C@@H]6OC[C@H](O)[C@H](O)[C@H]6O)[C@@](C)(CO)[C@@H]5CC[C@@]4(C)[C@]3(C)CC[C@@]2(C(=O)O[C@@H]2O[C@H](CO)[C@@H](O)[C@H](O)[C@H]2O)CC[C@]1(C)O
Activity [1]: inactive | Activity [2]: inactive | Activity [3]: Not Active

C[C@@H]1[C@H]2C3=CC[C@@H]4[C@@]5(C)C[C@@H](O)[C@H](O[C@@H]6OC[C@H](O)[C@H](O[C@@H]7OC[C@@H](O)[C@H](O)[C@H]7O)[C@H]6O)[C@@](C)(CO)[C@@H]5CC[C@@]4(C)[C@]3(C)CC[C@@]2(C(=O)O[C@@H]2O[C@H](CO[C@@H]3O[C@H](CO)[C@@H](O)[C@H](O)[C@H]3O)[C@@H](O)[C@H](O)[C@H]2O)CC[C@]1(C)O
Activity [1]: inactive | Activity [2]: inactive | Activity [3]: Not Active

C[C@@H]1O[C@@H](OC[C@H]2O[C@@H](OC(=O)[C@]34CC[C@](C)(O)[C@H](C)[C@H]3C3=CC[C@@H]5[C@@]6(C)CC[C@H](O[C@@H]7OC[C@H](O)[C@H](O[C@@H]8OC[C@@H](O)[C@H](O)[C@H]8O)[C@H]7O)[C@@](C)(CO)[C@@H]6CC[C@@]5(C)[C@]3(C)CC4)[C@H](O)[C@@H](O)[C@@H]2O)[C@H](O)[C@H](O)[C@H]1O
Activity [1]: inactive | Activity [2]: inactive | Activity [3]: Not Active
